Data as given in patent US8513229B2, “4-Azetidinyl-1-phenyl-cyclohexane antagonists of CCR2” (Janssen Pharmaceutica NV, priority 2009, dated 2013).

Each compound was assayed against T1, CCR2 (Homo sapiens, UniProt P41597) (assay: MCP-1 Receptor Binding Assay in THP-1 Cells). Details: 0.5 nM 125I labeled MCP-1, 2 hours at 30° C., read-out: Inhibition of MCP-1 Binding IC50 CCR2 Binding.
T1 construct: host or cells: THP-1 human monocytic cells
T1 sequence (P41597 1-360 isoform P41597-2): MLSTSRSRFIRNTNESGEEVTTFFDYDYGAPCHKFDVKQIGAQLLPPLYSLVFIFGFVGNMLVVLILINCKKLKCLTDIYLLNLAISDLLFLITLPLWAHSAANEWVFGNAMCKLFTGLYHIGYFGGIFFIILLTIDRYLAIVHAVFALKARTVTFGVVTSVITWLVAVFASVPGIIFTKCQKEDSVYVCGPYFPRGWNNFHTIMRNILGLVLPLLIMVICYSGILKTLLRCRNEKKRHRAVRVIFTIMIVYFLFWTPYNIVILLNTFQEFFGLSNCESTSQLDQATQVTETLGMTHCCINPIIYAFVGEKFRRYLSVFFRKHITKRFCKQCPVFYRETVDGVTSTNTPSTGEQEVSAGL
Description: MCP-1 Receptor Binding Assay in THP-1 Cells
Human monocytic cell line THP-1 cells were obtained from American Type Culture Collection (Manassas, Va., USA). […] The cell density was maintained […].
1 μM cold MCP-1 was used for nonspecific binding.
O=C(CNC(=O)c1cccc(C(F)(F)F)c1)NC1CN(C2CCC(O)(c3cccc(-c4nnn[nH]4)c3)CC2)C1 (centres unmarked) [Example 49, N-[(1-{4-Hydroxy-4-[3-(1H-tetrazol-5-yl)-phenyl]-cyclohexyl}-azetidin-3-ylcarbamoyl)-methyl]-3-trifluoromethyl-benzamide] showed an IC50 of 0.81 µM.
In the case of CC(C)(C)OC(=O)Nc1ccc(C2(O)CCC(N3CC(NC(=O)CNC(=O)c4cccc(C(F)(F)F)c4)C3)CC2)cc1 (centres unmarked) [Example 50, [4-(1-Hydroxy-4-{3-[2-(3-trifluoromethyl-benzoylamino)-acetylamino]-azetidin-1-yl}-cyclohexyl)-phenyl]-carbamic acid tert-butyl ester], the IC50 is reported as 0.23 µM.
CCc1cccc(C2(O)CCC(N3CC(NC(=O)CNC(=O)c4cccc(C(F)(F)F)c4)C3)CC2)c1 (centres unmarked) [Example 52, N-({1-[4-(3-Ethyl-phenyl)-4-hydroxy-cyclohexyl]-azetidin-3-ylcarbamoyl}-methyl)-3-trifluoromethyl-benzamide] showed an IC50 of 0.16 µM.
For O=C(CNC(=O)c1cccc(C(F)(F)F)c1)NC1CN(C2CCC(O)(c3ccc(Cl)cc3)CC2)C1 (centres unmarked) [Example 53, N-({1-[4-(4-Chloro-phenyl)-4-hydroxy-cyclohexyl]-azetidin-3-ylcarbamoyl}-methyl)-3-trifluoromethyl-benzamide], the IC50 was 0.24 µM.
With Cc1ccc(C2(O)CCC(N3CC(NC(=O)CNC(=O)c4cccc(C(F)(F)F)c4)C3)CC2)cc1 (centres unmarked) [Example 59, N-{[1-(4-Hydroxy-4-p-tolyl-cyclohexyl)-azetidin-3-ylcarbamoyl]-methyl}-3-trifluoromethyl-benzamide] the IC50 was 0.1 µM.
Cc1cccc(C2(O)CCC(N3CC(NC(=O)CNC(=O)c4cccc(C(F)(F)F)c4)C3)CC2)c1 (centres unmarked) [Example 60, N-{[1-(4-Hydroxy-4-m-tolyl-cyclohexyl)-azetidin-3-ylcarbamoyl]-methyl}-3-trifluoromethyl-benzamide] gave an IC50 of 0.1 µM.
CS(=O)(=O)Nc1cccc(C2(O)CCC(N3CC(NC(=O)CNC(=O)c4cccc(C(F)(F)F)c4)C3)CC2)c1 (centres unmarked) [Example 61, N-({1-[4-Hydroxy-4-(3-methanesulfonylamino-phenyl)-cyclohexyl]-azetidin-3-ylcarbamoyl}-methyl)-3-trifluoromethyl-benzamide] was tested, and the IC50 was 0.13 µM.
Work on Cn1c(=O)n(C)c2cc(C3(O)CCC(N4CC(NC(=O)CNC(=O)c5cccc(C(F)(F)F)c5)C4)CC3)ccc21 (centres unmarked) [Example 62, N-({1-[4-(1,3-Dimethyl-2-oxo-2,3-dihydro-1H-benzoimidazol-5-yl)-4-hydroxy-cyclohexyl]-azetidin-3-ylcarbamoyl}-methyl)-3-trifluoromethyl-benzamide] yielded an IC50 of 0.082 µM.
Cn1c(=O)oc2ccc(C3(O)CCC(N4CC(NC(=O)CNC(=O)c5cccc(C(F)(F)F)c5)C4)CC3)cc21 (centres unmarked) [Example 63a, N-({1-[4-Hydroxy-4-(3-methyl-2-oxo-2,3-dihydro-benzooxazol-5-yl)-cyclohexyl]-azetidin-3-ylcarbamoyl}-methyl)-3-trifluoromethyl-benzamide] gave an IC50 of 0.15 µM.
Cn1cnc2ccc(C3(O)CCC(N4CC(NC(=O)CNC(=O)c5cccc(C(F)(F)F)c5)C4)CC3)cc21 (centres unmarked) [Example 64, N-({1-[4-Hydroxy-4-(3-methyl-3H-benzoimidazol-5-yl)-cyclohexyl]-azetidin-3-ylcarbamoyl}-methyl)-3-trifluoromethyl-benzamide] showed an IC50 of 0.11 µM.
O=C(CNC(=O)c1cc(C(F)(F)F)ccc1F)NC1CN(C2CCC(c3ccccc3)CC2)C1 (centres unmarked) [Example 66, 2-Fluoro-N-{[1-(4-phenyl-cyclohexyl)-azetidin-3-ylcarbamoyl]-methyl}-5-trifluoromethyl-benzamide] gave an IC50 of 0.62 µM.
In the case of COc1ccc(C(=O)NCC(=O)NC2CN(C3CCC(c4ccccc4)CC3)C2)cc1C(F)(F)F (centres unmarked) [Example 67, 4-Methoxy-N-{[1-(4-phenyl-cyclohexyl)-azetidin-3-ylcarbamoyl]-methyl}-3-trifluoromethyl-benzamide], the IC50 is reported as 0.6 µM.
Work on COc1ccc(C(F)(F)F)cc1C(=O)NCC(=O)NC1CN(C2CCC(c3ccccc3)CC2)C1 (centres unmarked) [Example 68, 2-Methoxy-N-{[1-(4-phenyl-cyclohexyl)-azetidin-3-ylcarbamoyl]-methyl}-5-trifluoromethyl-benzamide] yielded an IC50 of 0.74 µM.
With CN(C)c1ccc(C(F)(F)F)cc1C(=O)NCC(=O)NC1CN(C2CCC(c3ccccc3)CC2)C1 (centres unmarked) [Example 69, 2-Dimethylamino-N-{[1-(4-phenyl-cyclohexyl)-azetidin-3-ylcarbamoyl]-methyl}-5-trifluoromethyl-benzamide] the IC50 was 0.24 µM.
Work on O=C(CNC(=O)c1cc(C(F)(F)F)ccc1N1CCCC1)NC1CN(C2CCC(c3ccccc3)CC2)C1 (centres unmarked) [Example 70, N-{[1-(4-Phenyl-cyclohexyl)-azetidin-3-ylcarbamoyl]-methyl}-2-pyrrolidin-1-yl-5-trifluoromethyl-benzamide] yielded an IC50 of 1.7 µM.
O=C(CNC(=O)c1ccc(NCCO)c(C(F)(F)F)c1)NC1CN(C2CCC(c3ccccc3)CC2)C1 (centres unmarked) [Example 72, 4-(2-Hydroxy-ethylamino)-N-{[1-(4-phenyl-cyclohexyl)-azetidin-3-ylcarbamoyl]-methyl}-3-trifluoromethyl-benzamide] gave an IC50 of 0.4 µM.
Compound O=C(CNC(=O)c1ccc([N+](=O)[O-])c(C(F)(F)F)c1)NC1CN(C2CCC(c3ccccc3)CC2)C1 (centres unmarked) [Example 73, 4-Nitro-N-{[1-(4-phenyl-cyclohexyl)-azetidin-3-ylcarbamoyl]-methyl}-3-trifluoromethyl-benzamide] has an IC50 of 0.49 µM.
In the case of Nc1ccc(C(=O)NCC(=O)NC2CN(C3CCC(c4ccccc4)CC3)C2)cc1C(F)(F)F (centres unmarked) [Example 74, 4-Amino-N-{[1-(4-phenyl-cyclohexyl)-azetidin-3-ylcarbamoyl]-methyl}-3-trifluoromethyl-benzamide], the IC50 is reported as 0.046 µM.
Work on O=C(CNC(=O)c1cc(Br)cc(C(F)(F)F)c1)NC1CN(C2CCC(c3ccccc3)CC2)C1 (centres unmarked) [Example 77, 3-Bromo-N-{[1-(4-phenyl-cyclohexyl)-azetidin-3-ylcarbamoyl]-methyl}-5-trifluoromethyl-benzamide] yielded an IC50 of 0.38 µM.
O=C(CNC(=O)c1cc([N+](=O)[O-])cc(C(F)(F)F)c1)NC1CN(C2CCC(c3ccccc3)CC2)C1 (centres unmarked) [Example 78, 3-Nitro-N-{[1-(4-phenyl-cyclohexyl)-azetidin-3-ylcarbamoyl]-methyl}-5-trifluoromethyl-benzamide] showed an IC50 of 1 µM.
Work on Nc1cc(C(=O)NCC(=O)NC2CN(C3CCC(c4ccccc4)CC3)C2)cc(C(F)(F)F)c1 (centres unmarked) [Example 79, 3-Amino-N-{[1-(4-phenyl-cyclohexyl)-azetidin-3-ylcarbamoyl]-methyl}-5-trifluoromethyl-benzamide] yielded an IC50 of 0.023 µM.
Compound CS(=O)(=O)N(c1cc(C(=O)NCC(=O)NC2CN(C3CCC(c4ccccc4)CC3)C2)cc(C(F)(F)F)c1)S(C)(=O)=O (centres unmarked) [Example 80, 3-Bis methanesulfonyl-N-{[1-(4-phenyl-cyclohexyl)-azetidin-3-ylcarbamoyl]-methyl}-5-trifluoromethyl-benzamide] has an IC50 of 0.42 µM.
O=C(CNC(=O)c1cc(O)cc(C(F)(F)F)c1)NC1CN(C2CCC(c3ccccc3)CC2)C1 (centres unmarked) [Example 81, 3-Hydroxy-N-{[1-(4-phenyl-cyclohexyl)-azetidin-3-ylcarbamoyl]-methyl}-5-trifluoromethyl-benzamide] was tested, and the IC50 was 11 µM.
For CC(C)(C)NC(=O)Nc1cc(C(=O)NCC(=O)NC2CN(C3CCC(c4ccccc4)CC3)C2)cc(C(F)(F)F)c1 (centres unmarked) [Example 82, 3-(3-tert-Butyl-ureido)-N-{[1-(4-phenyl-cyclohexyl)-azetidin-3-ylcarbamoyl]-methyl}-5-trifluoromethyl-benzamide], the IC50 was 0.05 µM.
COc1ccc(C2(N)CCC(N3CC(NC(=O)CNC(=O)c4cccc(C(F)(F)F)c4)C3)CC2)cc1 (centres unmarked) [Example 86, N-({1-[4-Amino-4-(4-methoxy-phenyl)-cyclohexyl]-azetidin-3-ylcarbamoyl}-methyl)-3-trifluoromethyl-benzamide] was tested, and the IC50 was 0.32 µM.
In the case of “N-({1-[4-(4,4-bis-Methanesulfonylamino-phenyl)-cyclohexyl]-azetidin-3-ylcarbamoyl}-methyl)-3-trifluoromethyl-benzamide [Example 17]”, the IC50 is reported as 0.027 µM.
